# Data as given in PubChem BioAssay (NCI).
#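 Cultured in 96-well plates, cells were exposed to test compound for 48 hours across five concentrations. GI50: concentration for 50% inhibition of growth. The concentration for full growth arrest is given as TGI.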
# Tests used:
# Assay in all cases: NCI anticancer screen, dose series, 48 h
# A549 NSCLC = tested on: A549 NSCLC
# DU-145 prostate = tested on: DU-145 prostate
# EKVX NSCLC = tested on: EKVX NSCLC
# HT29 colon = tested on: HT29 colon
# NCI/ADR-RES ovarian = tested on: NCI/ADR-RES ovarian
# PC-3 prostate = tested on: PC-3 prostate
# SF-295 CNS = tested on: SF-295 CNS
# SR leukemia = tested on: SR leukemia
# T-47D breast = tested on: T-47D breast
# U251 CNS = tested on: U251 CNS
SMILES,GI50 (A549 NSCLC) [µM],TGI (A549 NSCLC) [µM],GI50 (DU-145 prostate) [µM],TGI (DU-145 prostate) [µM],GI50 (EKVX NSCLC) [µM],TGI (EKVX NSCLC) [µM],GI50 (HT29 colon) [µM],TGI (HT29 colon) [µM],GI50 (NCI/ADR-RES ovarian) [µM],TGI (NCI/ADR-RES ovarian) [µM],GI50 (PC-3 prostate) [µM],TGI (PC-3 prostate) [µM],GI50 (SF-295 CNS) [µM],TGI (SF-295 CNS) [µM],GI50 (SR leukemia) [µM],TGI (SR leukemia) [µM],GI50 (T-47D breast) [µM],TGI (T-47D breast) [µM],GI50 (U251 CNS) [µM],TGI (U251 CNS) [µM]
CNc1nc(C)c(-c2nc(Nc3cccc(S(N)(=O)=O)c3)ncc2F)s1,0.0874,15.2,0.0358,17.6,0.0747,3.78,0.0605,10.8,0.0886,9.17,0.0388,1.27,0.0406,6.79,0.0171,1.15,0.0274,0.472,0.0268,11.5
CCN(CC)c1ccc(N=C2C=C(C(=O)Nc3ccc(S(C)(=O)=O)cc3)C(=O)c3ccccc32)c(C)c1,49.6,> 100,> 100,> 100,5.52,> 100,> 100,> 100,94,> 100,1.05,> 100,3.32,39.5,2.08,> 100,51.9,> 100,4.69,> 100
CC(=N\O)/C(C)=N/O.CC(=N\O)/C(C)=N/O.CC(=N\O)/C(C)=N/O.CC(=N\O)/C(C)=N/O.[Cu].[Cu],23,48.5,56.8,> 100,19.4,38.2,17.7,35.4,23.9,59.2,16.7,30.3,19.9,37.9,24,61.4,18.4,33.7,17.6,31.3
CCc1ccc(-c2ccc(=O)n(-c3ccc(S(N)(=O)=O)cc3)n2)cc1,3.14,> 100,21.3,> 100,5.65,> 100,0.484,> 100,0.412,12.2,1.35,> 100,0.992,29.4,0.0659,0.497,3.85,> 100,3.36,29
C[C@@H]1COCCN1c1nc(-c2cnc(N)cc2C(F)F)nc(N2[C@H](C)COC[C@@H]2C)n1,0.235,12.1,0.336,14.5,0.21,5.77,0.349,12.9,0.4,15.1,0.215,14.4,0.116,1.69,0.189,4.88,0.0422,0.644,0.355,13.7
OCc1cccc(-c2ccc3ncc(-c4nc(NC5CC5)ncc4F)n3c2)c1,0.341,> 100,0.287,1.83,0.296,0.946,0.329,> 100,0.321,1.68,0.314,3.23,0.334,1.59,0.0541,> 38.9,0.274,3.93,0.25,> 100
CCON=C1C(C)(C)C(C)(C)C(C)(C)C1(C)C,,> 100,,> 100,,> 100,,> 100,,> 100,,> 100,,> 100,,> 100,,> 100,,> 100
O=Nc1c(-c2cccc([N+](=O)[O-])c2)nc2cnccn12,,83.8,,40.2,,> 100,,40.1,,54.5,,62.6,,> 100,,18.4,,49.6,,42.4
O=c1[nH]cnc2c1nnn2C1OC(CO)C(O)C1O (stereo not given),29.1,> 100,0.548,14,60.4,> 100,2.15,> 100,0.835,> 31.4,2.43,> 100,1.71,> 65.7,3.37,> 100,0.736,> 100,20.4,> 100
O=[N+]([O-])c1cc(O)c(O)cc1-c1cn2ccsc2n1,41.3,> 100,17.2,> 100,> 100,> 100,28.7,> 100,50.6,> 100,63.4,> 100,31.2,91.3,41.3,> 100,> 100,> 100,77.1,> 100
